{"source": "DBAASP", "test_in_all_cases": "≥ marks a high value that may be exact or a test limit, other limits are often not marked, values filed in µg/mL are converted to µM", "key": {"[1]": {"test_system": "Proteus vulgaris NCTC 4635"}, "[2]": {"test_system": "Staphylococcus aureus ATCC 6538"}, "[3]": {"test_system": "Escherichia coli ATCC 8739"}, "[4]": {"test_system": "Bacillus subtilis ATCC 9372"}, "[5]": {"test_system": "Pseudomonas aeruginosa ATCC 9027"}, "[6]": {"test_system": "Acinetobacter baumannii NM8"}, "[7]": {"test_system": "Escherichia coli ATCC 25726"}, "[8]": {"test_system": "Candida albicans ATCC 90028"}, "[9]": {"test_system": "Staphylococcus aureus ATCC 25923"}, "[10]": {"test_system": "Acinetobacter baumannii NM75"}, "[11]": {"test_system": "Bacillus thuringiensis AB93100"}, "[12]": {"test_system": "Bacillus magaterium AB90008"}, "[13]": {"test_system": "Staphylococcus aureus AB94004"}, "[14]": {"test_system": "Escherichia coli JM109"}, "[15]": {"test_system": "Salmonella enterica AB2010185"}, "[16]": {"test_system": "Enterobacter cloacae subsp. cloacae AB2010162"}, "[17]": {"test_system": "Pseudomonas fluorescens"}, "[18]": {"test_system": "Candida tropicalis AY91009"}, "[19]": {"test_system": "Pseudomonas putida"}, "[20]": {"test_system": "Escherichia coli DH5alpha"}, "[21]": {"test_system": "Klebsiella oxytoca AB2010143"}, "[22]": {"test_system": "Proteus mirabilis ATCC 25933"}, "[23]": {"test_system": "Klebsiella pneumoniae KK3 9904"}, "[24]": {"test_system": "Staphylococcus aureus ATCC 700699"}, "[25]": {"test_system": "Aggregatibacter actinomycetemcomitans ATCC 29522"}, "[26]": {"test_system": "Batrachochytrium dendrobatidis"}, "[27]": {"test_system": "Pseudomonas aeruginosa ATCC 27853"}, "[28]": {"test_system": "Staphylococcus aureus ATCC 29213"}, "[29]": {"test_system": "Klebsiella pneumoniae ATCC 700603"}, "[30]": {"test_system": "Staphylococcus aureus ATCC 33591"}, "[31]": {"test_system": "Enterobacter cloacae NHTCC 53001"}, "[32]": {"test_system": "Acinetobacter baumannii"}, "[33]": {"test_system": "Staphylococcus epidermidis RP62A/1"}, "[34]": {"test_system": "Staphylococcus epidermidis RP62A"}, "[35]": {"test_system": "Stenotrophomonas maltophilia"}, "[36]": {"test_system": "Streptococcus agalactiae 819"}, "[37]": {"test_system": "Pseudomonas aeruginosa ATCC 19660"}, "[38]": {"test_system": "Helicobacter pylori ATCC 43504"}, "[39]": {"test_system": "Helicobacter pylori ATCC 700392"}, "[40]": {"test_system": "Helicobacter pylori"}, "[41]": {"test_system": "Vibrio vulnificus 204"}, "[42]": {"test_system": "Helicobacter pylori ATCC 43629"}, "[43]": {"test_system": "Aeromonas hydrophila BCRC 13018"}, "[44]": {"test_system": "Enterococcus faecalis BCRC 10066"}, "[45]": {"test_system": "Streptococcus agalactiae BCRC 10787"}, "[46]": {"test_system": "Vibrio alginolyticus"}}, "note": "Several values for one entry are separate records, joined by “and”; a condition that tells them apart may be missing. Identical values can stand only once.", "data": [{"compound": "CC[C@H](C)[C@H](NC(=O)[C@@H](NC(=O)[C@@H](NC(=O)[C@H](CC(=O)O)NC(=O)[C@H](Cc1ccccc1)NC(=O)[C@H](CC(C)C)NC(=O)CN)C(C)C)C(C)C)C(=O)NCC(=O)NCC(=O)N[C@@H](CC(C)C)C(=O)O", "note": "[GLFDVVIGGL]", "values": [{"measurement": "MIC", "setting": "[1]", "result": "≥ 1040", "unit": "µM"}, {"measurement": "MIC", "setting": "[2]", "result": "> 1040", "unit": "µM"}, {"measurement": "MIC", "setting": "[3]", "result": "≥ 1040", "unit": "µM"}, {"measurement": "MIC", "setting": "[4]", "result": "≥ 1040", "unit": "µM"}, {"measurement": "MIC", "setting": "[5]", "result": "> 1040", "unit": "µM"}]}, {"compound": "CC[C@H](C)[C@H](NC(=O)CNC(=O)[C@H](CCCCN)NC(=O)[C@@H](NC(=O)[C@H](CC(C)C)NC(=O)[C@H](CO)NC(=O)CNC(=O)[C@H](CC(C)C)NC(=O)CNC(=O)[C@H](C)NC(=O)[C@H](CCCCN)NC(=O)[C@H](Cc1ccccc1)NC(=O)[C@@H](NC(=O)[C@H](CCCCN)NC(=O)[C@H](CCCCN)NC(=O)[C@H](CC(C)C)NC(=O)CN)[C@@H](C)CC)C(C)C)C(=O)N[C@@H](CCCCN)C(=O)N[C@@H](C)C(=O)N[C@@H](Cc1cnc[nH]1)C(=O)N[C@H](C(=O)N[C@@H](C)C(=O)N[C@@H](CO)C(N)=O)C(C)C", "note": "[GLKKIFKAGLGSLVKGIKAHVAS]", "values": [{"measurement": "MIC", "setting": "[6]", "result": 5, "unit": "µM"}, {"measurement": "MIC", "setting": "[7]", "result": 10, "unit": "µM"}, {"measurement": "MIC", "setting": "[8]", "result": 20, "unit": "µM"}, {"measurement": "MIC", "setting": "[9]", "result": "> 250", "unit": "µM"}, {"measurement": "MIC", "setting": "[10]", "result": 2.5, "unit": "µM"}]}, {"compound": "CC[C@H](C)[C@H](NC(=O)[C@H](CC(C)C)NC(=O)[C@H](CCCN=C(N)N)NC(=O)[C@H](CCCCN)NC(=O)[C@@H](NC(=O)[C@@H](NC(=O)CNC(=O)[C@H](CC(C)C)NC(=O)[C@H](CC(C)C)NC(=O)[C@H](CCCN=C(N)N)NC(=O)CNC(=O)[C@H](CO)NC(=O)[C@H](CCC(=O)O)NC(=O)[C@H](CCCN=C(N)N)NC(=O)[C@H](CCC(=O)O)NC(=O)[C@H](CCCCN)NC(=O)[C@H](CCC(=O)O)NC(=O)[C@H](CO)NC(=O)[C@@H](NC(=O)CNC(=O)[C@@H](N)CO)[C@@H](C)O)C(C)C)C(C)C)C(=O)N[C@H](C(=O)N[C@@H](CS)C(=O)N[C@@H](Cc1ccccc1)C(=O)N[C@@H](CCCN=C(N)N)C(=O)N[C@@H](CO)C(=O)N1CCC[C@H]1C(=O)N[C@@H](Cc1ccccc1)C(=O)N1CCC[C@H]1C(N)=O)C(C)C", "note": "[SGTSEKERESGRLLGVVKRLIVCFRSPFP]", "values": [{"measurement": "MIC", "setting": "[11]", "result": "≥ 46.5", "unit": "µM"}, {"measurement": "MIC", "setting": "[12]", "result": 11.8, "unit": "µM"}, {"measurement": "MIC", "setting": "[13]", "result": 23.6, "unit": "µM"}, {"measurement": "MIC", "setting": "[14]", "result": "≥ 50.4", "unit": "µM"}, {"measurement": "MIC", "setting": "[15]", "result": 25, "unit": "µM"}, {"measurement": "MIC", "setting": "[16]", "result": "≥ 47.9", "unit": "µM"}, {"measurement": "MIC", "setting": "[17]", "result": 23.8, "unit": "µM"}, {"measurement": "MIC", "setting": "[18]", "result": "≥ 48.6", "unit": "µM"}, {"measurement": "MIC", "setting": "[19]", "result": 24, "unit": "µM"}, {"measurement": "MIC", "setting": "[20]", "result": "≥ 51.2", "unit": "µM"}, {"measurement": "MIC", "setting": "[21]", "result": "≥ 50.5", "unit": "µM"}]}, {"compound": "CC[C@H](C)[C@H](NC(=O)[C@H](CC(=O)O)NC(=O)[C@H](CCCCN)NC(=O)[C@H](C)NC(=O)[C@H](C)NC(=O)CNC(=O)[C@H](CCCCN)NC(=O)[C@H](CC(C)C)NC(=O)[C@@H](NC(=O)[C@H](CC(=O)O)NC(=O)[C@@H](NC(=O)[C@@H](NC(=O)CN)C(C)C)C(C)C)[C@@H](C)CC)C(=O)N[C@@H](C)C(=O)NCC(=O)N[C@@H](Cc1cnc[nH]1)C(=O)N[C@@H](CC(C)C)C(=O)N[C@@H](C)C(=O)N[C@@H](CO)C(=O)N[C@@H](CCCCN)C(=O)N[C@H](C(=O)N[C@@H](CCSC)C(=O)N[C@@H](CC(N)=O)C(=O)N[C@@H](CCCCN)C(=O)N[C@@H](CC(C)C)C(N)=O)C(C)C", "note": "[GVVDILKGAAKDIAGHLASKVMNKL]", "values": [{"measurement": "MIC", "setting": "[22]", "result": "≥ 160", "unit": "µM"}, {"measurement": "MIC", "setting": "[23]", "result": "≥ 80", "unit": "µM"}, {"measurement": "MIC", "setting": "[24]", "result": "≥ 100", "unit": "µM"}, {"measurement": "MIC", "setting": "[9]", "result": 110, "unit": "µM"}, {"measurement": "MIC", "setting": "[25]", "result": 24.8, "unit": "µM"}, {"measurement": "MIC", "setting": "[26]", "result": "≥ 100", "unit": "µM"}, {"measurement": "MIC", "setting": "[27]", "result": "80 µM and 100 µM"}, {"measurement": "MIC", "setting": "[28]", "result": "> 100", "unit": "µM"}, {"measurement": "MIC", "setting": "[29]", "result": 100, "unit": "µM"}, {"measurement": "MIC", "setting": "[30]", "result": "≥ 100", "unit": "µM"}, {"measurement": "MIC", "setting": "[31]", "result": 20, "unit": "µM"}]}, {"compound": "CC[C@H](C)[C@H](N)C(=O)N[C@@H](CCCCN)C(=O)N[C@@H](CC(C)C)C(=O)N[C@@H](CO)C(=O)N1CCC[C@H]1C(=O)N[C@@H](CCCCN)C(=O)N[C@H](C(=O)N[C@@H](CCCCN)C(=O)N[C@@H](CC(=O)O)C(=O)N[C@@H](CC(N)=O)C(=O)N[C@@H](CC(C)C)C(=O)N[C@@H](CCCCN)C(=O)N[C@@H](CCCCN)C(=O)N[C@H](C(=O)N[C@@H](CC(C)C)C(=O)N[C@@H](CCCCN)C(=O)NCC(=O)N[C@@H](C)C(=O)N[C@H](C(=O)N[C@@H](CCCCN)C(=O)NCC(=O)N[C@@H](C)C(=O)N[C@H](C(=O)N[C@@H](C)C(=O)N[C@H](C(=O)N[C@@H](C)C(=O)N[C@@H](CCCCN)C(=O)N[C@@H](CCSC)C(=O)N[C@H](C(N)=O)C(C)C)C(C)C)[C@@H](C)CC)[C@@H](C)CC)C(C)C)[C@@H](C)O", "note": "[IKLSPKTKDNLKKVLKGAIKGAIAVAKMV]", "values": [{"measurement": "MIC", "setting": "[32]", "result": 6.25, "unit": "µM"}, {"measurement": "MIC", "setting": "[22]", "result": "≥ 100", "unit": "µM"}, {"measurement": "MIC", "setting": "[7]", "result": 6.25, "unit": "µM"}, {"measurement": "MIC", "setting": "[8]", "result": "≥ 100", "unit": "µM"}, {"measurement": "MIC", "setting": "[9]", "result": 1.6, "unit": "µM"}, {"measurement": "MIC", "setting": "[27]", "result": 12.5, "unit": "µM"}, {"measurement": "MIC", "setting": "[28]", "result": 3.1, "unit": "µM"}, {"measurement": "MIC", "setting": "[33]", "result": 0.8, "unit": "µM"}, {"measurement": "MIC", "setting": "[34]", "result": 0.8, "unit": "µM"}, {"measurement": "MIC", "setting": "[29]", "result": 6.25, "unit": "µM"}, {"measurement": "MIC", "setting": "[35]", "result": 1.6, "unit": "µM"}]}, {"compound": "CC(C)C[C@H](NC(=O)[C@@H](NC(=O)[C@H](CO)NC(=O)[C@H](CC(=O)O)NC(=O)[C@H](Cc1c[nH]c2ccccc12)NC(=O)[C@H](CC(=O)O)NC(=O)[C@@H](N)Cc1ccccc1)C(C)C)C(=O)N[C@@H](CCCCN)C(=O)NCC(=O)N[C@H](C(=O)N[C@@H](CCC(=O)O)C(=O)NCC(=O)N[C@@H](Cc1ccccc1)C(=O)N[C@H](C(=O)N[C@@H](CCCN=C(N)N)C(=O)NCC(=O)N[C@@H](Cc1ccc(O)cc1)C(=O)N[C@@H](Cc1ccccc1)C(N)=O)C(C)C)C(C)C", "note": "[FDWDSVLKGVEGFVRGYF]", "values": [{"measurement": "MIC", "setting": "[36]", "result": 11.1, "unit": "µM"}, {"measurement": "MIC", "setting": "[37]", "result": 11.1, "unit": "µM"}, {"measurement": "MIC", "setting": "[38]", "result": 5.66, "unit": "µM"}, {"measurement": "MIC", "setting": "[39]", "result": 5.66, "unit": "µM"}, {"measurement": "MIC", "setting": "[40]", "result": 5.66, "unit": "µM"}, {"measurement": "MIC", "setting": "[41]", "result": 11.1, "unit": "µM"}, {"measurement": "MIC", "setting": "[42]", "result": 5.66, "unit": "µM"}, {"measurement": "MIC", "setting": "[43]", "result": 11.1, "unit": "µM"}, {"measurement": "MIC", "setting": "[44]", "result": 11.1, "unit": "µM"}, {"measurement": "MIC", "setting": "[45]", "result": 11.1, "unit": "µM"}, {"measurement": "MIC", "setting": "[46]", "result": 11.1, "unit": "µM"}]}]}
